Measured values as given in PubChem BioAssay AID2644 (Southern Research Specialized Biocontainment Screening …, 2010).
Activity calls are given as the source filed them.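 How the source made its calls: active means compounds cutting the HIV-1 infection reporter signal by at least 50%; inactive means the rest.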

Tested on: MAGI-CCR5 cells, HIV-1 Ba-L, beta-gal luminescence, 48 h
Assay: HIV-1 replication inhibition, CCR5-tropic virus, SAR follow-up, cell-based, HIV-1 Ba-L, beta-gal reporter, 5%/10% serum (AID 2644)
[1] = measured here: antiviral IC50 in 10% serum

| SMILES | IC50 | IC50 [1] [µM] |
| --- | --- | --- |
| Cc1c(Cl)cccc1NS(=O)(=O)c1ccc2c(c1)C1C=CCC1C(c1ccc(C(=O)O)cc1)N2 (configuration not stated) | 16.7 µM | 40.6 |
| CCOc1cc(/C=C2\SC(=O)N(CC(=O)Nc3ccccc3F)C2=O)cc([N+](=O)[O-])c1O | 21 µM | 26.3 |
| CSc1nnc(-c2ccccc2N=Cc2c(C)[nH]n(-c3ccc4ccccc4c3)c2=O)c(=O)[nH]1 | 53.1 µM | > 100 |
| N#C/C(=C\c1ccc(O)c([N+](=O)[O-])c1)c1nc2ccccc2s1 | 7.96 µM | 15.1 |
| O=C(N/N=C/c1c(O)n(C2CCCCC2)c(=S)[nH]c1=O)c1ccccc1O | 46.4 µM | 45 |
| CCC(Sc1nc2ccsc2c(=O)n1Cc1ccc(C(=O)O)cc1)C(=O)Nc1ccc(C)c(Cl)c1 (configuration not stated) | 14.6 µM | 37.8 |
| CC(C)NC(=O)c1sc(=S)n2c1[nH]c(=O)c1ccc(C(=O)NCCc3ccc(Cl)cc3)cc12 | 35.1 µM | 63.4 |
| O=[N+]([O-])c1cc([N+](=O)[O-])c2oc(-c3ccccc3)c(Br)c2c1O | 4.46 µM | 9.38 |
| Oc1c(Cl)cc(Cl)c(Cl)c1Cc1c(O)c(Cl)cc(Cl)c1Cl | 49.3 µM | > 100 |
| COC(=O)c1sc(-c2ccc(C(C)(C)C)cc2)cc1NC(=O)c1ccccc1C(=O)O | 49.9 µM | 54.9 |
| O=C1NC(=S)N(c2ccc(F)cc2)C(=O)/C1=C\c1ccoc1 | > 100 µM (inactive) | > 100 |
| COc1cc(/C=N/NS(=O)(=O)c2ccc3ccccc3c2)ccc1OCc1ccc(C(=O)O)cc1 | > 100 µM (inactive) | > 100 |
| CCOC(=O)C1=C(C)N=c2sc(=Cc3ccc(OCC(=O)O)cc3)c(=O)n2C1c1ccc(OC(C)C)cc1 (configuration not stated) | 20.9 µM | 26 |
| O=C(O)CCCN1C(=O)/C(=C/c2ccc(-c3nc4ccccc4s3)o2)SC1=S | 80.8 µM | 95.4 |
| CCOC(=O)c1sc(N2C(=O)C(O)=C(C(=O)c3ccc(C)o3)C2c2cccc([N+](=O)[O-])c2)nc1C (configuration not stated) | 20.6 µM | 18.5 |
| COc1cc(/C=C2\SC(=O)N(c3ccccc3Cl)C2=O)cc([N+](=O)[O-])c1O | 13.9 µM | 23.8 |
| O=C(O)c1ccccc1N=Nc1c(O)[nH]c2ccc([N+](=O)[O-])cc12 | > 100 µM (inactive) | > 100 |
| Cc1c2c(=O)n(-c3nc4ccccc4s3)nc-2cc(O)n1Cc1ccccc1 | 12.5 µM | 11.1 |
| CC(C)(C)c1cc(-c2csc(Nc3ccccc3)[n+]2Cc2ccc(C(=O)O)cc2)cc(C(C)(C)C)c1O | 7.17 µM | 12.3 |
| N#C/C(=C\c1ccc(OCc2ccc(Cl)cc2)cc1)C(=O)Nc1cccc(C(=O)O)c1 | > 100 µM (inactive) | > 100 |
| CCC(C)(C)C1CCc2c(sc(NC(=O)c3ccccc3C(=O)O)c2C#N)C1 (configuration not stated) | > 100 µM (inactive) | > 100 |
